# Data published in patent publication US20090088457A1, “Primary Amines as Renin Inhibitors” (Actelion Pharmaceuticals, Ltd., priority 2006, published 2009).
# Biological target: T1, recombinant human renin (Homo sapiens, UniProt P00797)
# T1 sequence (P00797 67-406): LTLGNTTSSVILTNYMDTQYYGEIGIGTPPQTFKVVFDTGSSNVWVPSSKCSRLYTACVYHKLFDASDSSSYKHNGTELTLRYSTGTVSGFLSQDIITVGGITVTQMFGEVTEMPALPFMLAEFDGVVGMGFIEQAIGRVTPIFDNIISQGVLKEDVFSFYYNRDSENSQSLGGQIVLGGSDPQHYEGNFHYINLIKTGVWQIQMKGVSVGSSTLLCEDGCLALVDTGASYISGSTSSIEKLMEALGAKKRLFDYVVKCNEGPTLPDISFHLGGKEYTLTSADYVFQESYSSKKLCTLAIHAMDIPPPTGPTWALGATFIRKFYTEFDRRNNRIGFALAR
# Experiment: Primary renin inhibition assay: IC50 in buffer, 384 well MTP (AngI quantified by EIA)
# Type: biochemical
# Settings: human tetradecapeptide substrate, 37° C. for 3 h
# Experimental: 1. Enzyme Immuno Assay (EIA) to Estimate AngI Accumulation and Renin Inhibition
# 1.1 Preparation of AngI-BSA Conjugate
# 1.3 mg (1 μmol) of AngI [1-10 (Bachem, H-1680)] and 17 mg (0.26 μmol) of BSA (Fluka, 05475) were dissolved in 4 mL of 0.1M phosphate buffer, pH 7.4, after which 2 mL of a 1:100 dilution of glutaraldehyde in H2O (Sigma G-5882) was added dropwise. The mixture was incubated overnight at 4° C., then dialyzed against 2 liters of 0.9% NaCl, twice for 4 h at rt, followed by dialysis against 2 liters of PBS 1× overnight at rt. The solution was then filtered with a Syringe filter, 0.45 μm (Nalgene, Cat. No. 194-2545). The conjugate can be stored in polypropylene tubes in 0.05% sodium azide at 4° C. for at least 12 months.
# 1.2 Preparation of BSA-AngI Coated MTP
# Microtiter plates (MPT384, MaxiSorp™, Nunc) were incubated overnight at 4° C. with 80 μl of AngI (1-10)/BSA conjugate, diluted 1:100'000 in PBS 1× in a teflon beaker (exact dilution dependent on batch of conjugate), emptied, filled with 90 μl of blocking solution [0.5% BSA (Sigma A-2153) in PBS 1×, 0.02% NaN3], and incubated for at least 2 h at rt, or overnight at 4° C. 96 well MTP (MaxiSorp™, Nunc) were coated with 200 μl conjugate and blocked with 250 μl blocking solution as above, except that the blocking solution contained 3% BSA. The plates can be stored in blocking solution at 4° C. for 1 month.
# 1.3 AngI-EIA in 384 Well MTP
# The AngI (1-10)/BSA coated MTP were washed 3 times with wash buffer (PBS 1×, 0.01% Tween 20) and filled with 75 μl of primary antibody solution (anti-AngI antiserum, pre-diluted 1:10 in horse serum), diluted to a final concentration of 1:100'000 in assay buffer (PBS 1×, 1 mM EDTA, 0.1% BSA, pH 7.4). 5 μl of the renin reaction (or standards in assay buffer) (see below) were added to the primary antibody solution and the plates were incubated overnight at 4° C. After the incubation the plates were washed 3 times with wash buffer and incubated with secondary antibody [anti-rabbit IgG, linked to horseradish peroxidase (Amersham Bioscience, NA 934V), diluted 1:2'000 in wash buffer] for 2 h at rt. The plates were washed 3 times with wash buffer and then incubated for 1 h at rt with substrate solution [1.89 mM ABTS (2.2′-azino-di-(3-ethyl-benzthiazolinsulfonate)] (Roche Diagnostics, 102 946) and 2.36 mM H2O2 [30%, (Fluka, 95300] in substrate buffer (0.1M sodium acetate, 0.05M sodium dihydrogen phosphate, pH 4.2). The OD of the plate was read at 405 nm in a microplate reader (FLUOStar Optima from BMG). The production of AngI during the renin reaction was quantified by comparing the OD of the sample with the OD of a standard curve of AngI(1-10), measured in parallel.
# 2. Primary Renin Inhibition Assay: IC50 in Buffer, 384 Well MTP
# The renin assay was adapted from an assay described before (Fischli W. et al., Hypertension, 1991, 18:22-31) and consists of two steps: in the first step, recombinant human renin is incubated with its substrate (commercial human tetradecapeptide renin substrate) to create the product Angiotensin I (AngI). In the second step, the accumulated AngI is measured by an immunological assay (enzyme immuno assay, EIA). The detailed description of this assay is found below. The EIA is very sensitive and well suited for renin activity measurements in buffer or in plasma. Due to the low concentration of renin used in this assay (2 fmol per assay tube or 10 pM) it is possible to measure inhibitor affinities in this primary assay down to low pM concentration.
# Recombinant human renin (3 pg/μl) in assay buffer (PBS 1×, 1 mM EDTA, 0.1% BSA, pH 7.4), human tetradecapeptide (1-14) substrate (Bachem, M-1120) [5 μM in 10 mM HCl], hydroxyquinoline sulfate (Fluka, 55100) [30 mM in H2O] and assay buffer were premixed at 4° C. at a ratio of 100:30:10:145. 47.5 μl per well of this premix was transferred into polypropylene plates (MTP384, Nunc). […]
row,IC50 [nM],Compound
1,0.3,"COCCc1ccc(Cl)c(CN(C(=O)[C@@H](CN)Cc2ccc(N3CC[C@H](Oc4c(Cl)cc(C)cc4Cl)C3)nc2)C2CC2)c1 [Example 22, (R)-2-Aminomethyl-N-[2-chloro-5-(2-methoxy-ethyl)-benzyl]-N-cyclopropyl-3-{6-[(S)-3-(2,6-dichloro-4-methyl-phenoxy)-pyrrolidin-1-yl]-pyridin-3-yl}-propionamide]"
2,0.5,"COCCc1ccc(Cl)c(CN(C(=O)[C@@H](CN)Cc2ccc(N3CC[C@@H](Oc4c(Cl)cc(C)cc4Cl)C3)nc2)C2CC2)c1 [Example 20, (R)-2-Aminomethyl-N-[2-chloro-5-(2-methoxy-ethyl)-benzyl]-N-cyclopropyl-3-{6-[(R)-3-(2,6-dichloro-4-methyl-phenoxy)-pyrrolidin-1-yl]-pyridin-3-yl}-propionamide]"
3,0.2,"COCCc1ccc(Cl)c(CN(C(=O)[C@@H](CN)Cc2ccc(OCCOc3c(Cl)cc(C)cc3Cl)nc2)C2CC2)c1 [Example 18, (R)-2-Aminomethyl-N-[2-chloro-5-(2-methoxy-ethyl)-benzyl]-N-cyclopropyl-3-{6-[2-(2,6-dichloro-4-methyl-phenoxy)-ethoxy]-pyridin-3-yl}-propionamide]"

# More lines, now with the values behind:
row,Compound,IC50 [nM]
1,"Mixture of (R)-2-aminomethyl-3-{2-[(R)-3-(3-chloro-2,6-difluoro-phenoxy)-pyrrolidin-1-yl]-thiazol-5-yl}-N-cyclopropyl-N-(2,3-dichloro-benzyl)-propionamide and (S)-2-aminomethyl-3-{2-[(R)-3-(3-chloro-2,6-difluoro-phenoxy)-pyrrolidin-1-yl]-thiazol-5-yl}-N-cyclopropyl-N-(2,3-dichloro-benzyl)-propionamide [Example 14]",45
2,"Cc1cccc(CN(C(=O)C(CN)Cc2cnc(OCCOc3c(F)ccc(F)c3Cl)s2)C2CC2)c1C (racemic) [Example 2, (rac.)-3-Amino-2-{2-[2-(2-chloro-3,6-difluoro-phenoxy)-ethoxy]-thiazol-5-ylmethyl}-N-cyclopropyl-N-(2,3-dimethyl-benzyl)-propionamide]",7.8
3,"Mixture of (R)-2-aminomethyl-N-cyclopropyl-N-(2,3-dichloro-benzyl)-3-{2-[(R)-3-(2,6-dichloro-3,4-dimethyl-phenoxy)-pyrrolidin-1-yl]-thiazol-5-yl}-propionamide and (S)-2-aminomethyl-N-cyclopropyl-N-(2,3-dichloro-benzyl)-3-{2-[(R)-3-(2,6-dichloro-3,4-dimethyl-phenoxy)-pyrrolidin-1-yl]-thiazol-5-yl}-propionamide [Example 11]",17
